From PMC11480411, “Mucosal sugars delineate pyrazine vs pyrazinone autoinducer signaling in Klebsiella oxytoca” (Nature Communications, 2024)
“And” between values parts separate entries of the source, which are not always exact repeats. Equal entries are not always repeated.

What was measured:
[1] = tested on: leup operon (leupeptin BGC) promoter in K. oxytoca ATCC 8724; assay: GFP-based transcriptional reporter for the leup operon; format: cell-based, Klebsiella oxytoca; settings: carbohydrate screen, M9 + casamino acid + 0.4% indicated sugar, 30 °C, 24 h; for GFP fluorescence, GFP Strain + Media: leup GFP reporter strain; for GFP fluorescence, WT + Media: wildtype K. oxytoca without reporter (background)
From the text: We previously examined a panel of 84 clinical K. oxytoca isolates (including recently renamed Klebsiella michiganensis isolates) for the presence of either the leup operon or npsB, an NRPS of the tilimycin/tilivalline gene cluster. […] While the roles of tilivalline and tilimycin in hemorrhagic colitis are well studied[8],[9], the operon for leupeptin biosynthesis is “silent” in K. oxytoca under typical laboratory culture conditions (i.e., leupeptin production is undetectable). Therefore, our study commenced by exploring growth conditions required to trigger leupeptin biosynthesis in K. oxytoca. To achieve this, we generated a green fluorescent protein (GFP)-based reporter system to monitor leup transcription in K. oxytoca ATCC 8724 (recently renamed as Klebsiella michiganensis (ATCC 8724), Fig. 1a). We utilized λ-red recombineering techniques[38] to replace the first biosynthetic gene (leupA) of the leupeptin BGC with a GFP-spectinomycin resistance cassette. […] Consequently, conditions that elicit transcription of the leupeptin BGC can be monitored by GFP fluorescence intensity.
5 mL of the leupeptin reporter strain was cultured aerobically in 10 g/L of LB (Becton Dickinson), yeast extract, GAM (HiMedia Laboratories), horse liver extract (HiMedia Laboratories), malt extract (VWR), meat extract (HiMedia Laboratories), YPD (Dot Scienticifc), brain heart infusion (Becton Dickinson), porcine mucin (Sigma-Aldrich, M1778), clostridial (Becton Dickinson), TSB (VWR), or casamino acid supplemented (5 g/L, VWR) M9 minimal salts (MP Biomedicals) at 30 °C for 24 h at 250 rpm. Cultures were lysed via sonication, centrifuged, and 150 µL of the supernatants were aliquoted into black well clear bottom 96 well plates. GFP fluorescence measurements were performed on a BioTek Synergy H1 plate reader with an excitation wavelength of 488 nm and an emission wavelength of 525 nm. For the carbohydrate screen, the leupeptin reporter strain was cultured in M9 minimal medium (MPbio) supplemented with casamino acid (5 g/L, VWR) and 0.4% indicated sugar aerobically at 30 °C for 24 h at 250 rpm.

[2] = biological target: T1, histamine receptor H4 (HRH4) (Homo sapiens, UniProt Q9H3N8); assay: PRESTO-Tango GPCR screen and dose-response; format: cell-based; settings: for HRH4 dose-response raw reporter signal (Fig. 5b source data): replicate wells
T1 construct: expressed in transfected cells; host or cells: HTLA cells (HEK293 line stably expressing β-arrestin-TEV and tTA-Luciferase)
T1 sequence (Q9H3N8 whole entry): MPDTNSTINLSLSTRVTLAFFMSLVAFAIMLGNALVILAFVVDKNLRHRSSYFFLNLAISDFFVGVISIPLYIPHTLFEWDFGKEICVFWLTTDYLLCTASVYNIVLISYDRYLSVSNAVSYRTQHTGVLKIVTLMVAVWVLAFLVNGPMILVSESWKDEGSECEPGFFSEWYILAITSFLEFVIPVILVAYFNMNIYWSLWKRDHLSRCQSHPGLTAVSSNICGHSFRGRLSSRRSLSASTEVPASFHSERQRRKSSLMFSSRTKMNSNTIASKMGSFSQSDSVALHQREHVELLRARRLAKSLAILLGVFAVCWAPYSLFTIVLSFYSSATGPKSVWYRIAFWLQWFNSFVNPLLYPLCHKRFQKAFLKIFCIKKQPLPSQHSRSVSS
Protocol: (§1) The PRESTO-Tango analyses were performed as previously published. Briefly, HTLA cells, a HEK293 cell line that stably expresses β-arrestin-TEV and tTA-Luciferase (a kind gift from Gilad Barnea, Brown University), were plated in 96-well tissue culture plates (Eppendorf) in DMEM containing 10% FBS and 1% Penicillin/Streptomycin. One day after plating (after reaching approximately 90% confluence), 200 ng per well GPCR-Tango plasmids[37] in 20 μL DMEM were individually mixed with 400 ng polyethylenimine (Polysciences) in an equal volume of DMEM and incubated for 20 min at room temperature before adding the transfection mixture to the HTLA cells. 16-24 h after transfection, medium was replaced with 180 μL fresh DMEM containing 1% Penicillin/Streptomycin and 10 mM HEPES and 20 μL of 3 or 3-Homo to reach a final concentration of 100 μM. Supernatants were aspirated 20 h after stimulation and 50 μl per well of Bright-Glo solution (Promega) diluted 20-fold with PBS containing 20 mM HEPES was added into each well. After 15 min incubation at room temperature, luminescence was quantified using a Spectramax i3x microplate reader (Molecular Devices). Activation fold for each sample was calculated by dividing relative luminescence units (RLU) for each condition by RLUs from PBS control. Dose response curves of each chemical were performed in a similar way with varying the ligand concentration from 10^−4 M to 10^−15 M.

HRH2 = biological target: T2, HRH2 (Homo sapiens, UniProt P25021); assay: PRESTO-Tango GPCR screen and dose-response; format: cell-based; settings: for HRH2 dose-response raw reporter signal (Fig. 5b source data): replicate wells
T2 construct: expressed in transfected cells; host or cells: HTLA cells (HEK293 line stably expressing β-arrestin-TEV and tTA-Luciferase)
T2 sequence (P25021 whole entry): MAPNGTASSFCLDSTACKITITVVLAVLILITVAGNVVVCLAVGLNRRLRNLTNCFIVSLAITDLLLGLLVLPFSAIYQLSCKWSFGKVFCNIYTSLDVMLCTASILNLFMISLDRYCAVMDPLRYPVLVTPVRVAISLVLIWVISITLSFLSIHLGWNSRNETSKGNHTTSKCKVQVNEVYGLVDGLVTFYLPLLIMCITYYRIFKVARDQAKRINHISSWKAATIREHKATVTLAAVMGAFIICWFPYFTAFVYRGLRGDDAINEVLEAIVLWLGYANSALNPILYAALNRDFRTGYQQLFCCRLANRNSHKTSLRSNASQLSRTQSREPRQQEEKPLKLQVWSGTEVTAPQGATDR
Protocol: as §1

HRH1 = biological target: T3, HRH1 (Homo sapiens, UniProt P35367); assay: PRESTO-Tango GPCR screen and dose-response; format: cell-based; settings: for HRH1 dose-response raw reporter signal (Fig. 5b source data): replicate wells
T3 construct: expressed in transfected cells; host or cells: HTLA cells (HEK293 line stably expressing β-arrestin-TEV and tTA-Luciferase)
T3 sequence (P35367 whole entry): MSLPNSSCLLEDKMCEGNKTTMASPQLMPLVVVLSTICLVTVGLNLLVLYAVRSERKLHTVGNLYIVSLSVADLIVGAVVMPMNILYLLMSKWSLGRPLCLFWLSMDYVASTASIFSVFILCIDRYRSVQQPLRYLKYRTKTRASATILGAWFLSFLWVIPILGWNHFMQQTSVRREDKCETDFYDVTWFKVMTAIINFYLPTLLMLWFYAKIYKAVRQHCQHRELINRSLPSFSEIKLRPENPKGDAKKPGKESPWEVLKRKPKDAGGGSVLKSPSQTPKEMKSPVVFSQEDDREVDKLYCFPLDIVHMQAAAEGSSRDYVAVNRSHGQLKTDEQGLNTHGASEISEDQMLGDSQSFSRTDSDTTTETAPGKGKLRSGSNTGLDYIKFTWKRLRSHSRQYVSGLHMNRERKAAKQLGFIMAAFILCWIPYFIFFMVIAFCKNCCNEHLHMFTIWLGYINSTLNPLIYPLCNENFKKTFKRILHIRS
Protocol: as §1

HRH3 = biological target: T4, HRH3 (Homo sapiens, UniProt Q9Y5N1); assay: PRESTO-Tango GPCR screen and dose-response; format: cell-based; settings: for HRH3 dose-response raw reporter signal (Fig. 5b source data): replicate wells
T4 construct: expressed in transfected cells; host or cells: HTLA cells (HEK293 line stably expressing β-arrestin-TEV and tTA-Luciferase)
T4 sequence (Q9Y5N1 whole entry): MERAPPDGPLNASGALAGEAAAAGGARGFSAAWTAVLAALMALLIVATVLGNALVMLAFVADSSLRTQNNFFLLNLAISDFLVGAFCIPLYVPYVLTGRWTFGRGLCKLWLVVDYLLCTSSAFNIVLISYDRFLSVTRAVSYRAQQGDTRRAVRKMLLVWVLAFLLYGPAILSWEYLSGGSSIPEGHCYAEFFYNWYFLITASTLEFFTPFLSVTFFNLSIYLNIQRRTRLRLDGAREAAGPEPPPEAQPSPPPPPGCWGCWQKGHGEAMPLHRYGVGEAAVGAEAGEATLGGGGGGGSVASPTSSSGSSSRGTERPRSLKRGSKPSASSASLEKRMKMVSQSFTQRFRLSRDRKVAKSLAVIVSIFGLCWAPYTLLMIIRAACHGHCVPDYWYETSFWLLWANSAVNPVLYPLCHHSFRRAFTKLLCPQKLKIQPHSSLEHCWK
Protocol: as §1

With CC(C)S[C@@H]1O[C@H](CO)[C@H](O)[C@H](O)[C@H]1O [IPTG] the “GFP fluorescence, GFP Strain + Media” value [1] was 9918 RFU and the “GFP fluorescence, WT + Media” value [1] was 8873 RFU.
In the case of O[C@@H]1[C@@H](O)[C@@H](O)CO[C@H]1O [Arabinose], the “GFP fluorescence, GFP Strain + Media” value [1] was 9484 RFU and the “GFP fluorescence, WT + Media” value [1] was 6365 RFU.
For OC[C@@H](O)[C@@H](O)[C@H](O)[C@@H](O)CO [Sorbital], the “GFP fluorescence, GFP Strain + Media” value [1] was 10051 RFU and the “GFP fluorescence, WT + Media” value [1] was 6226 RFU.
In the case of O=C[C@H](O)[C@@H](O)[C@H](O)CO [Xylose], the “GFP fluorescence, GFP Strain + Media” value [1] was 9892 RFU and the “GFP fluorescence, WT + Media” value [1] was 5418 RFU.
For O=C(CO)[C@@H](O)[C@H](O)[C@H](O)CO [Fructose], the “GFP fluorescence, GFP Strain + Media” value [1] was 9618 RFU and the “GFP fluorescence, WT + Media” value [1] was 6828 RFU.
COC(=O)CCc1nc(Cc2ccccc2)c(CCC(=O)O)nc1Cc1ccccc1 [9-Me] was tested, and the “HRH4 dose-response raw reporter signal (Fig. 5b source data)” value (shortened to “HRH4 dose-response raw reporter signal”) ([2]; Log(10)Conc (M) -5) was 427 and 460, the “HRH4 dose-response raw reporter signal” value ([2]; Log(10)Conc (M) -6) was 342 and 348 and the “HRH4 dose-response raw reporter signal” value ([2]; Log(10)Conc (M) -7) was 348 and 321. For the same molecule, the “HRH4 dose-response raw reporter signal” value ([2]; Log(10)Conc (M) -8) was 410 and 321, the “HRH4 dose-response raw reporter signal” value ([2]; Log(10)Conc (M) -9) was 324 and 251 and the “HRH4 dose-response raw reporter signal” value ([2]; Log(10)Conc (M) -10) was 377 and 368. The “HRH4 dose-response raw reporter signal” value ([2]; Log(10)Conc (M) -11) was 262 and 307, the “HRH4 dose-response raw reporter signal” value ([2]; Log(10)Conc (M) -12) was 407 and 336 and the “HRH4 dose-response raw reporter signal” value ([2]; Log(10)Conc (M) -13) was 298 and 395. For the same molecule, the “HRH4 dose-response raw reporter signal” value ([2]; Log(10)Conc (M) -14) was 268, the “HRH4 dose-response raw reporter signal” value ([2]; Log(10)Conc (M) -15) was 215 and 212 and the “activity towards HRH4” value ([2]; PRESTO-Tango dose-response) was “no activity”. The “HRH2 dose-response raw reporter signal (Fig. 5b source data)” value (“HRH2 dose-response raw reporter signal” below) (HRH2; Log(10)Conc (M) -4) was 83 and 65 and 100, the “HRH2 dose-response raw reporter signal” value (HRH2; Log(10)Conc (M) -5) was 41 and 50 and 56 and the “HRH2 dose-response raw reporter signal” value (HRH2; Log(10)Conc (M) -6) was 56 and 47 and 32. For the same molecule, the “HRH2 dose-response raw reporter signal” value (HRH2; Log(10)Conc (M) -7) was 65 and 62 and 35, the “HRH2 dose-response raw reporter signal” value (HRH2; Log(10)Conc (M) -8) was 97 and 47 and 41 and the “HRH2 dose-response raw reporter signal” value (HRH2; Log(10)Conc (M) -9) was 41 and 35 and 77. For the same molecule, the “HRH2 dose-response raw reporter signal” value (HRH2; Log(10)Conc (M) -10) was 38 and 80 and 41, the “HRH2 dose-response raw reporter signal” value (HRH2; Log(10)Conc (M) -11) was 91 and 32 and 56 and the “HRH2 dose-response raw reporter signal” value (HRH2; Log(10)Conc (M) -12) was 53 and 71 and 59. The “HRH2 dose-response raw reporter signal” value (HRH2; Log(10)Conc (M) -13) was 38 (2×) and 85, the “HRH2 dose-response raw reporter signal” value (HRH2; Log(10)Conc (M) -14) was 38 and 65 and 56 and the “HRH2 dose-response raw reporter signal” value (HRH2; Log(10)Conc (M) -15) was 32 and 41 and 83. For the same molecule, the “activity towards HRH2” value (HRH2; PRESTO-Tango dose-response) was “no activity”, the “HRH1 dose-response raw reporter signal (Fig. 5b source data)” value (shortened to “HRH1 dose-response raw reporter signal”) (HRH1; Log(10)Conc (M) -4) was 50545 and 47748 and the “HRH1 dose-response raw reporter signal” value (HRH1; Log(10)Conc (M) -5) was 50057 and 47492. For the same molecule, the “HRH1 dose-response raw reporter signal” value (HRH1; Log(10)Conc (M) -6) was 50434 and 47377, the “HRH1 dose-response raw reporter signal” value (HRH1; Log(10)Conc (M) -7) was 50075 and 47693 and the “HRH1 dose-response raw reporter signal” value (HRH1; Log(10)Conc (M) -8) was 49488 and 47793. The “HRH1 dose-response raw reporter signal” value (HRH1; Log(10)Conc (M) -9) was 48159 and 46626, the “HRH1 dose-response raw reporter signal” value (HRH1; Log(10)Conc (M) -10) was 48713 and 47646 and the “HRH1 dose-response raw reporter signal” value (HRH1; Log(10)Conc (M) -11) was 49358 and 47065. For the same molecule, the “HRH1 dose-response raw reporter signal” value (HRH1; Log(10)Conc (M) -12) was 50278 and 46581, the “HRH1 dose-response raw reporter signal” value (HRH1; Log(10)Conc (M) -13) was 49874 and 48613 and the “HRH1 dose-response raw reporter signal” value (HRH1; Log(10)Conc (M) -14) was 50243 and 49745. The “HRH1 dose-response raw reporter signal” value (HRH1; Log(10)Conc (M) -15) was 45927 and 43079, the “activity towards HRH1” value (HRH1; PRESTO-Tango dose-response) was “no activity” and the “HRH3 dose-response raw reporter signal (Fig. 5b source data)” value (“HRH3 dose-response raw reporter signal” for short) (HRH3; Log(10)Conc (M) -4) was 348 and 274 and 324. For the same molecule, the “HRH3 dose-response raw reporter signal” value (HRH3; Log(10)Conc (M) -5) was 112 and 156 and 153, the “HRH3 dose-response raw reporter signal” value (HRH3; Log(10)Conc (M) -6) was 127 and 174 and 142 and the “HRH3 dose-response raw reporter signal” value (HRH3; Log(10)Conc (M) -7) was 91 and 130 and 165. For the same molecule, the “HRH3 dose-response raw reporter signal” value (HRH3; Log(10)Conc (M) -8) was 168 and 112 and 162, the “HRH3 dose-response raw reporter signal” value (HRH3; Log(10)Conc (M) -9) was 127 and 103 and 139 and the “HRH3 dose-response raw reporter signal” value (HRH3; Log(10)Conc (M) -10) was 174 and 144 and 115. The “HRH3 dose-response raw reporter signal” value (HRH3; Log(10)Conc (M) -11) was 162 (2×) and 97, the “HRH3 dose-response raw reporter signal” value (HRH3; Log(10)Conc (M) -12) was 139 and 168 and 144 and the “HRH3 dose-response raw reporter signal” value (HRH3; Log(10)Conc (M) -13) was 183 and 168 and 153. For the same molecule, the “HRH3 dose-response raw reporter signal” value (HRH3; Log(10)Conc (M) -14) was 183 and 85 and 150, the “HRH3 dose-response raw reporter signal” value (HRH3; Log(10)Conc (M) -15) was 94 and 115 and 112 and the “activity towards HRH3” value (HRH3; PRESTO-Tango dose-response) was “no activity”.
